{
  "source": "patent US12697330B2",
  "about": "“Therapeutic methods using vadadustat” (Akebia Therapeutics, Inc., priority 2021, dated 2026)",
  "format_in_all_cases": "in vivo, human",
  "key": {"[1]": {"test": "Phase 2 study, Main Study: pharmacokinetics (vadadustat and vadadustat-O-glucuronide concentration)", "protocol": "(§1) PK/PD Endpoints. An exposure-response analysis of vadadustat and PD measures were conducted as deemed appropriate. The PK parameters included (but were not limited to) the following: area under concentration-time curve from dosing to last measurable concentration (AUClast), area under concentration-time curve from dosing to infinity (AUCinf), Cmax, apparent total body clearance (CL/F), apparent volume of distribution (Vd/F), and terminal half-life (t1/2). The PD parameters included (but were not limited to) the following: EPO, reticulocytes, iron, ferritin, TIBC, and hepcidin.\n(§2) PK population: included all randomized subjects who received study drug (vadadustat or epoetin alfa) and had enough drug concentrations to estimate AUC and Cmax. Analysis of this population was based on the dose amount taken at the date of PK sampling for the vadadustat group."}, "[2]": {"tested_on": "erythropoietin (EPO)", "test": "Phase 2 study, Main Study: pharmacodynamics, Baseline-Unadjusted serum EPO concentration", "protocol": "as §1, §2\nPD parameters for serum EPO concentration are presented by epoetin alfa stratification for vadadustat treatment groups in Table 7, Table 8a and Table 8b (baseline-unadjusted) and Table 9, Table 10a and Table 10b (baseline-adjusted)."}, "[3]": {"tested_on": "hemodialysis subjects", "test": "Main Study: vadadustat versus epoetin alfa in hemodialysis subjects (Hb, ESA/RBC rescue, EPO levels)", "excerpt": "The primary efficacy endpoint was to assess the mean change in Hb between baseline and the PEP (Weeks 10 to 12) in hemodialysis subjects.\nThe first key secondary efficacy endpoint was the proportion of subjects with Hb values within the target range (10.0 to 11.0 g/dL, inclusive) at the PEP (Weeks 10 to 12).\nThe second key secondary endpoint was the mean change in Hb from PEP (average Hb from Weeks 10 to 12) to the SEP (average Hb from Weeks 18 to 20) for subjects who transitioned to TIW vadadustat dosing. In the Main Study, the change in Hb from PEP to SEP for the 17 subjects who switched from QD to TIW was −0.4 g/dL."}, "[4]": {"tested_on": "Hb", "test": "Phase 1b study: pharmacodynamics, Hb, reticulocytes, iron indices, hepcidin", "details": "10-day Treatment period", "excerpt": "PD Sampling. For all vadadustat and ESA treatment groups, in addition to EPO, blood samples for Hb, reticulocytes and iron indices for PD analyses were collected on Day 1, Day 6 and Day 10. Hepcidin were collected predose on Day 1, Day 6, and Day 10 for PD analysis.\nSecondary Endpoints. For each treatment group, PD parameters included, but were not limited to, as deemed appropriate: hepcidin, erythropoietin (EPO), iron indices (iron, ferritin, total iron-binding capacity [TIBC], TSAT), Hb, and reticulocytes."}, "[5]": {"details": "low epoetin alfa stratum, Week 1 and Week 1+1 day"}},
  "data": [
    {"compound": "O=C(O)CNC(=O)c1ncc(-c2cccc(Cl)c2)cc1O", "note": "[vadadustat, {[5-(3-chlorophenyl)-3-hydroxypyridine-2-carbonyl]amino}acetic acid]", "values": [
      {"measurement": "concentrations versus dose", "setting": "[1]; TIW group", "result": "No dose dependent increases in concentrations"},
      {"measurement": "mean concentration versus time profiles, dose dependency", "setting": "[1]; Week 1, Week 1+1 day, and Week 11", "result": "concentrations increased with dose levels"},
      {"measurement": "EPO concentration versus dose", "setting": "[2]; high epoetin alfa stratum", "result": "No particular trend"},
      {"measurement": "EPO Cmax versus dose", "setting": "[2]; high epoetin alfa stratum, Week 1", "result": "dose dependent"},
      {"measurement": "EPO Cmax and AUC versus comparator", "setting": "[2]; [5]", "result": "lower compared to the epoetin alfa treatment group"},
      {"measurement": "EPO Cmax and AUC versus dose", "setting": "[2]; [5]", "result": "dose proportional"},
      {"measurement": "EPO concentration versus dose", "setting": "[2]; low epoetin alfa stratum, Week 1 and Week 1+1 day (300, 450 mg), Week 11 (150 to 600 mg)", "result": "Dose dependent increases in EPO concentrations"},
      {"measurement": "subjects receiving ESA administration as rescue", "setting": "[3]; Baseline (inclusive) to Week 12 (inclusive), compared to epoetin alfa treated subjects", "result": "more"},
      {"measurement": "subjects receiving any ESA administration", "setting": "[3]; Baseline (inclusive) to Week 20 (inclusive), compared to epoetin alfa treated subjects", "result": "more"},
      {"measurement": "change in Hb from PEP (Weeks 10 to 12) to SEP (Weeks 18 to 20)", "setting": "[3]; Main Study, 17 subjects who switched from QD to TIW", "result": -0.4, "unit": "g/dL"},
      {"measurement": "mean change from baseline in Hb", "setting": "[3]; Main Study, baseline to PEP (Weeks 10 to 12), compared to epoetin alfa treatment group, throughout", "result": "numerically lower"},
      {"measurement": "mean (SD) Hb overall at Weeks 10 to 12", "setting": "[3]; Main Study, compared to epoetin alfa", "result": "lower"},
      {"measurement": "mean change in Hb between baseline and the SEP", "setting": "[3]; Main Study, compared to epoetin alfa treatment group", "result": "lower"},
      {"measurement": "proportion of subjects with RBC transfusion and RBC transfusion as rescue", "setting": "[3]; across treatment groups, all study periods", "result": "similar"},
      {"measurement": "change from baseline in Hb", "setting": "[3]; high epoetin alfa stratum, vadadustat 300 mg, after Week 10 Hb began to return towards baseline", "result": "decrease from baseline in Hb up to Week 10"},
      {"measurement": "number of subjects within target Hb range", "setting": "[3]; high epoetin alfa stratum, vadadustat groups (particularly 300 mg) compared to epoetin alfa treatment group", "result": "numerically lower"},
      {"measurement": "change from baseline in Hb", "setting": "[3]; low epoetin alfa stratum, except for the vadadustat 300 mg group throughout treatment", "result": "no decrease from baseline in Hb was observed"},
      {"measurement": "proportion of subjects with Hb values within the target range (10.0 to 11.0 g/dL, inclusive) at Weeks 10 to 12", "setting": "[3]; vadadustat 300 mg group of the high epoetin alfa stratum, lowest proportion", "result": 8.3, "unit": "%"},
      {"measurement": "mean Hb levels versus dose", "setting": "[4]", "result": "not a dose-dependent increase"}
    ]}
  ]
}
